Results taken from publication PMC6152377, “Structure-Activity Relationships of Acyclic Selenopurine Nucleosides as Antiviral Agents” (Molecules : A Journal of Synthetic Chemistry and Natural …, 2017).
pEC50: −log10 of the molar value.

Tested on: HSV-1 (strain F, VR-733)
Assay: CPE inhibition antiviral assay, HSV-1
Format: cell-based, herpes simplex virus (HSV)-1
Settings: Human alphaherpesvirus 1, 72 h, inhibition of virus-induced cytopathic effect by 50%, MTT readout, 3 days
Protocol: (§1) All the final compounds 3a–f and 4a–g were assayed for their antiviral activity against several herpes viruses such as HSV-1 (strain F, VR-733), HSV-2 (strain MS, VR-540), VZV (Ellen, VR-1367), and HCMV (Davis, VR-807). Cytotoxicity data were measured in HEL299 (CCL-137) cells as described previously. […] Antiviral activity was measured using a standard cytopathic (CPE) inhibition assay as described before. Briefly, Vero cells in stationary phase were infected with the virus at a multiplicity of infection of 2–4 CCID50 (50% cell culture inhibitory dose) per each well of 96-well plates. After 2 h of adsorption at 37 °C, the liquid was aspirated and 100 μL of Dulbeco’s modified eagle’s media (DMEM)/2% fetal bovine serum (FBS) containing a compound was applied to each well in duplicate for each concentration and further incubated for 3 days. Antiviral activity was measured by MTT assay and expressed as the EC50. Cytocidal assay was performed as a control experiment for the antiviral assay. It was carried out simultaneously with the antiviral assay described above using mock instead of virus for infection, and cell viability was measured by MTT assay. The concentration of the compound responsible for 50% reduction of cell growth was calculated and expressed as CC50.

**Q.** With `Nc1ncnc2c1ncn2C[Se]C(CO)CO` [Compound 3f, 2-((6-Amino-9H-purin-9-yl)methylselanyl)propane-1,3-diol] as the compound, how does the pEC50 read?
**A.** < 4.00

**Q.** With `CNc1nc(N)nc2c1ncn2C[Se]CCO` [Compound 4b, 2-((2-Amino-6-(methylamino)-9H-purin-9-yl)methylselanyl) ethanol] as the compound, how does the pEC50 read?
**A.** 4.84

**Q.** With `Nc1nc(N)c2ncn(C[Se]CCO)c2n1` [Compound 4c, 2-((2,6-Diamino-9H-purin-9-yl)methylselanyl) ethanol] as the compound, how does the pEC50 read?
**A.** 4.81

**Q.** With `CNc1nc(N)nc2c1ncn2C[Se]C(CO)CO` [Compound 4e, 2-((2-Amino-6-(methylamio)-9H-purin-9-yl)methylselanyl) propane-1,3-diol] as the compound, how does the pEC50 read?
**A.** < 4.00

**Q.** With `Nc1nc(N)c2ncn(C[Se]C(CO)CO)c2n1` [Compound 4f, 2-((2,6-Diamino-9H-purin-9-yl)methylselanyl)propane-1,3-diol] as the compound, how does the pEC50 read?
**A.** < 4.00

**Q.** With `Nc1nc(NC2CC2)c2ncn(C[Se]C(CO)CO)c2n1` [Compound 4g, 2-((2-Amino-6-(cyclopropylamino)-9H-purin-9-yl)methylselanyl)propane-1,3-diol] as the compound, how does the pEC50 read?
**A.** < 4.00

Tested on: HEL299 (CCL-137) cells
Assay: not given
Settings: read-out: CC50 HEL299, 50% reduction of cell viability, ref [11]; cited from earlier work

**Q.** With `Nc1nc2c(ncn2C[Se]CCO)c(=O)[nH]1` [Compound 4a, 9-((2-Hydroxyethylselanyl)methyl)-2-amino-1H purin-6(9H)-one] as the compound, how does the CC50 read?
**A.** > 100 µM

**Q.** With `Nc1nc2c(ncn2C[Se]C(CO)CO)c(=O)[nH]1` [Compound 4d, 9-((1,3-Dihydroxypropan-2-ylselanyl)methyl)-2-amino-1H-purin-6(9H)-one] as the compound, how does the CC50 read?
**A.** > 100 µM

Tested on: HSV-2 (strain MS, VR-540)
Assay: not given
Set-up: method as in PMID 20466277
Settings: inhibition of virus-induced cytopathic effect by 50%, ref [11]; cited from earlier work

**Q.** With `Nc1nc2c(ncn2C[Se]CCO)c(=O)[nH]1` [Compound 4a, 9-((2-Hydroxyethylselanyl)methyl)-2-amino-1H purin-6(9H)-one] as the compound, how does the pEC50 read?
**A.** 5.20

**Q.** With `Nc1nc2c(ncn2C[Se]C(CO)CO)c(=O)[nH]1` [Compound 4d, 9-((1,3-Dihydroxypropan-2-ylselanyl)methyl)-2-amino-1H-purin-6(9H)-one] as the compound, how does the pEC50 read?
**A.** < 4.00

Tested on: VZV (Ellen, VR-1367)
Assay: CPE inhibition antiviral assay, VZV
Format: cell-based, varicella-zoster virus (VZV)
Settings: Human alphaherpesvirus 3; inhibition of virus-induced cytopathic effect by 50%; strain Ellen; MTT readout
Protocol: as §1

**Q.** With `Nc1ncnc2c1ncn2C[Se]C(CO)CO` [Compound 3f, 2-((6-Amino-9H-purin-9-yl)methylselanyl)propane-1,3-diol] as the compound, how does the pEC50 read?
**A.** < 4.00

**Q.** With `CNc1nc(N)nc2c1ncn2C[Se]CCO` [Compound 4b, 2-((2-Amino-6-(methylamino)-9H-purin-9-yl)methylselanyl) ethanol] as the compound, how does the pEC50 read?
**A.** < 4.00

**Q.** With `Nc1nc(N)c2ncn(C[Se]CCO)c2n1` [Compound 4c, 2-((2,6-Diamino-9H-purin-9-yl)methylselanyl) ethanol] as the compound, how does the pEC50 read?
**A.** < 4.00

**Q.** With `CNc1nc(N)nc2c1ncn2C[Se]C(CO)CO` [Compound 4e, 2-((2-Amino-6-(methylamio)-9H-purin-9-yl)methylselanyl) propane-1,3-diol] as the compound, how does the pEC50 read?
**A.** < 4.00

**Q.** With `Nc1nc(N)c2ncn(C[Se]C(CO)CO)c2n1` [Compound 4f, 2-((2,6-Diamino-9H-purin-9-yl)methylselanyl)propane-1,3-diol] as the compound, how does the pEC50 read?
**A.** < 4.00

**Q.** With `Nc1nc(NC2CC2)c2ncn(C[Se]C(CO)CO)c2n1` [Compound 4g, 2-((2-Amino-6-(cyclopropylamino)-9H-purin-9-yl)methylselanyl)propane-1,3-diol] as the compound, how does the pEC50 read?
**A.** < 4.00

Tested on: HCMV (Davis, VR-807)
Assay: not given
Set-up: method as in PMID 20466277
Settings: inhibition of virus-induced cytopathic effect by 50%; strain Davis; ref [11]; cited from earlier work

**Q.** With `Nc1nc2c(ncn2C[Se]CCO)c(=O)[nH]1` [Compound 4a, 9-((2-Hydroxyethylselanyl)methyl)-2-amino-1H purin-6(9H)-one] as the compound, how does the pEC50 read?
**A.** < 4.00

**Q.** With `Nc1nc2c(ncn2C[Se]C(CO)CO)c(=O)[nH]1` [Compound 4d, 9-((1,3-Dihydroxypropan-2-ylselanyl)methyl)-2-amino-1H-purin-6(9H)-one] as the compound, how does the pEC50 read?
**A.** 4.27

Tested on: not listed separately
Assay: Cytotoxicity (cytocidal) assay, MTT
Format: cell-based
Settings: human, 50% reduction of cell viability, HEL299 cells, mock infection
Protocol: as §1

**Q.** With `Nc1ncnc2c1ncn2C[Se]C(CO)CO` [Compound 3f, 2-((6-Amino-9H-purin-9-yl)methylselanyl)propane-1,3-diol] as the compound, how does the CC50 at 3 days read?
**A.** > 100 µM

**Q.** Which CC50 at 3 days does the source give for `CNc1nc(N)nc2c1ncn2C[Se]CCO` [Compound 4b, 2-((2-Amino-6-(methylamino)-9H-purin-9-yl)methylselanyl) ethanol] here?
**A.** > 100 µM

**Q.** With `Nc1nc(N)c2ncn(C[Se]CCO)c2n1` [Compound 4c, 2-((2,6-Diamino-9H-purin-9-yl)methylselanyl) ethanol] as the compound, how does the CC50 at 3 days read?
**A.** > 100 µM

**Q.** With `CNc1nc(N)nc2c1ncn2C[Se]C(CO)CO` [Compound 4e, 2-((2-Amino-6-(methylamio)-9H-purin-9-yl)methylselanyl) propane-1,3-diol] as the compound, how does the CC50 at 3 days read?
**A.** > 100 µM

**Q.** With `Nc1nc(N)c2ncn(C[Se]C(CO)CO)c2n1` [Compound 4f, 2-((2,6-Diamino-9H-purin-9-yl)methylselanyl)propane-1,3-diol] as the compound, how does the CC50 at 3 days read?
**A.** > 100 µM

**Q.** Which CC50 at 3 days does the source give for `Nc1nc(NC2CC2)c2ncn(C[Se]C(CO)CO)c2n1` [Compound 4g, 2-((2-Amino-6-(cyclopropylamino)-9H-purin-9-yl)methylselanyl)propane-1,3-diol] here?
**A.** > 100 µM

Tested on: HCMV (Davis, VR-807)
Assay: CPE inhibition antiviral assay, HCMV
Format: cell-based, human cytomegalovirus (HCMV)
Settings: Human betaherpesvirus 5; inhibition of virus-induced cytopathic effect by 50%; strain Davis; MTT readout
Protocol: as §1

**Q.** With `Nc1ncnc2c1ncn2C[Se]C(CO)CO` [Compound 3f, 2-((6-Amino-9H-purin-9-yl)methylselanyl)propane-1,3-diol] as the compound, how does the pEC50 read?
**A.** 4.19

**Q.** With `CNc1nc(N)nc2c1ncn2C[Se]CCO` [Compound 4b, 2-((2-Amino-6-(methylamino)-9H-purin-9-yl)methylselanyl) ethanol] as the compound, how does the pEC50 read?
**A.** < 4.00

**Q.** With `Nc1nc(N)c2ncn(C[Se]CCO)c2n1` [Compound 4c, 2-((2,6-Diamino-9H-purin-9-yl)methylselanyl) ethanol] as the compound, how does the pEC50 read?
**A.** < 4.00

**Q.** With `CNc1nc(N)nc2c1ncn2C[Se]C(CO)CO` [Compound 4e, 2-((2-Amino-6-(methylamio)-9H-purin-9-yl)methylselanyl) propane-1,3-diol] as the compound, how does the pEC50 read?
**A.** 4.49

**Q.** With `Nc1nc(N)c2ncn(C[Se]C(CO)CO)c2n1` [Compound 4f, 2-((2,6-Diamino-9H-purin-9-yl)methylselanyl)propane-1,3-diol] as the compound, how does the pEC50 read?
**A.** 4.46

**Q.** With `Nc1nc(NC2CC2)c2ncn(C[Se]C(CO)CO)c2n1` [Compound 4g, 2-((2-Amino-6-(cyclopropylamino)-9H-purin-9-yl)methylselanyl)propane-1,3-diol] as the compound, how does the pEC50 read?
**A.** 4.39

Tested on: VZV (Ellen, VR-1367)
Assay: not given
Set-up: method as in PMID 20466277
Settings: inhibition of virus-induced cytopathic effect by 50%; strain Ellen; ref [11]; cited from earlier work

**Q.** With `Nc1nc2c(ncn2C[Se]CCO)c(=O)[nH]1` [Compound 4a, 9-((2-Hydroxyethylselanyl)methyl)-2-amino-1H purin-6(9H)-one] as the compound, how does the pEC50 read?
**A.** < 4.00

**Q.** With `Nc1nc2c(ncn2C[Se]C(CO)CO)c(=O)[nH]1` [Compound 4d, 9-((1,3-Dihydroxypropan-2-ylselanyl)methyl)-2-amino-1H-purin-6(9H)-one] as the compound, how does the pEC50 read?
**A.** < 4.00

Tested on: HSV-2 (strain MS, VR-540)
Assay: CPE inhibition antiviral assay, HSV-2
Format: cell-based
Settings: Human alphaherpesvirus 2, 72 h, inhibition of virus-induced cytopathic effect by 50%, MTT readout, 3 days
Protocol: as §1

**Q.** With `Nc1ncnc2c1ncn2C[Se]C(CO)CO` [Compound 3f, 2-((6-Amino-9H-purin-9-yl)methylselanyl)propane-1,3-diol] as the compound, how does the pEC50 read?
**A.** < 4.00

**Q.** With `CNc1nc(N)nc2c1ncn2C[Se]CCO` [Compound 4b, 2-((2-Amino-6-(methylamino)-9H-purin-9-yl)methylselanyl) ethanol] as the compound, how does the pEC50 read?
**A.** 4.75

**Q.** With `Nc1nc(N)c2ncn(C[Se]CCO)c2n1` [Compound 4c, 2-((2,6-Diamino-9H-purin-9-yl)methylselanyl) ethanol] as the compound, how does the pEC50 read?
**A.** 4.63

**Q.** With `CNc1nc(N)nc2c1ncn2C[Se]C(CO)CO` [Compound 4e, 2-((2-Amino-6-(methylamio)-9H-purin-9-yl)methylselanyl) propane-1,3-diol] as the compound, how does the pEC50 read?
**A.** < 4.00

**Q.** With `Nc1nc(N)c2ncn(C[Se]C(CO)CO)c2n1` [Compound 4f, 2-((2,6-Diamino-9H-purin-9-yl)methylselanyl)propane-1,3-diol] as the compound, how does the pEC50 read?
**A.** < 4.00

**Q.** With `Nc1nc(NC2CC2)c2ncn(C[Se]C(CO)CO)c2n1` [Compound 4g, 2-((2-Amino-6-(cyclopropylamino)-9H-purin-9-yl)methylselanyl)propane-1,3-diol] as the compound, how does the pEC50 read?
**A.** < 4.00

Tested on: not given
Assay: not given
Settings: not given

**Q.** For `Nc1ncnc2c1ncn2C[Se]C(CO)CO` [Compound 3f, 2-((6-Amino-9H-purin-9-yl)methylselanyl)propane-1,3-diol], which melting point is on record?
**A.** 186 to 188 °C

**Q.** For `CNc1nc(N)nc2c1ncn2C[Se]CCO` [Compound 4b, 2-((2-Amino-6-(methylamino)-9H-purin-9-yl)methylselanyl) ethanol], which melting point is on record?
**A.** 183 to 185 °C

**Q.** With `Nc1nc(N)c2ncn(C[Se]CCO)c2n1` [Compound 4c, 2-((2,6-Diamino-9H-purin-9-yl)methylselanyl) ethanol] as the compound, how does the melting point read?
**A.** 84 to 86 °C

**Q.** For `CNc1nc(N)nc2c1ncn2C[Se]C(CO)CO` [Compound 4e, 2-((2-Amino-6-(methylamio)-9H-purin-9-yl)methylselanyl) propane-1,3-diol], which melting point is on record?
**A.** 140 to 143 °C

**Q.** For `Nc1nc(N)c2ncn(C[Se]C(CO)CO)c2n1` [Compound 4f, 2-((2,6-Diamino-9H-purin-9-yl)methylselanyl)propane-1,3-diol], which melting point is on record?
**A.** 193 to 196 °C

Tested on: HSV-1 (strain F, VR-733)
Assay: not given
Set-up: method as in PMID 20466277
Settings: inhibition of virus-induced cytopathic effect by 50%, ref [11]; cited from earlier work

**Q.** With `Nc1nc2c(ncn2C[Se]CCO)c(=O)[nH]1` [Compound 4a, 9-((2-Hydroxyethylselanyl)methyl)-2-amino-1H purin-6(9H)-one] as the compound, how does the pEC50 read?
**A.** 5.83

**Q.** With `Nc1nc2c(ncn2C[Se]C(CO)CO)c(=O)[nH]1` [Compound 4d, 9-((1,3-Dihydroxypropan-2-ylselanyl)methyl)-2-amino-1H-purin-6(9H)-one] as the compound, how does the pEC50 read?
**A.** < 4.00
